Consider seven compounds from patent US6960611B2, “Sulfonyl-containing 2,3-diarylindole compounds, methods for making same, and methods of use thereof” (Institute of Materia Medica, priority 2002, dated 2005).

Each structure is given as a SMILES string.

The subject of data set [1] is carrageenan-induced foot pad edema. Nature of the data set: Rat carrageenan-induced foot pad edema assay. Format: in vivo. The conditions noted are these: 10 mg/kg oral. The method, then:
Male Sprgue-Dawley rats (190-220 g ) were fasted with free access to water at least 16 h prior experiments. The rats were dosed orally with a 1 ml suspension of test compound in vehicle (0.5% methyl cellulose and 0.025% Tween-20) or with vehicle alone. One hour later a subplantar injection of 0.1 ml of 1% solution of carageenan in 0.9% strile saline was administered to the right hind foot pad. Paw volume was measured with a displacement plethysmometer 2, 3, and 4 h after carrageenan injection.
For orientation: Carrageenan injected into the paw causes an acute inflammation.

Data set [2] deals with T1, COX-2 (Mus musculus, UniProt Q05769).
T1 construct: endogenous in cells; host or cells: thioglycollate-elicited peritoneal macrophages of male C57BL-6J mice, stimulated with LPS
T1 sequence (Q05769 18-604): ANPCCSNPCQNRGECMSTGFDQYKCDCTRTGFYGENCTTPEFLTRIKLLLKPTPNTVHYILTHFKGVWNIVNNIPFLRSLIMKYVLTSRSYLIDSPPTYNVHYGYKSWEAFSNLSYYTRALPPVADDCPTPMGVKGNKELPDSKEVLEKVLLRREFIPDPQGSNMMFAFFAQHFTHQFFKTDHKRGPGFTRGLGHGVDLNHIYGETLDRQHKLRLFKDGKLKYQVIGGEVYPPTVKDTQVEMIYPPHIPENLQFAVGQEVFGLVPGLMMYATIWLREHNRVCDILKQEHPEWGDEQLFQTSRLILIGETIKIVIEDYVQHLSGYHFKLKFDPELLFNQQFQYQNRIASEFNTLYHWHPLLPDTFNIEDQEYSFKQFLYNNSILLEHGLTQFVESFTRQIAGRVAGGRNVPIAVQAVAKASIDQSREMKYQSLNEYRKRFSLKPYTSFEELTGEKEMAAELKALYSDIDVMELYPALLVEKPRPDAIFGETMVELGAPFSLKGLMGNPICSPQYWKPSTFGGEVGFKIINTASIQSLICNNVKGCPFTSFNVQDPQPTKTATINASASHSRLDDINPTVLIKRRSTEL
Nature of the data set: COX-2 assay: PGE2 release (RIA) from LPS-stimulated mouse peritoneal macrophages. Format: cell-based, mice. The conditions noted are these: LPS 1 mg/L 9 h, PGE2 by RIA. On the procedure:
Cell culture: Adherent macrophages were harvested from the peritoneal cells of male mice (C57BL-6J, Level 2, from Experiment Animal Center, Academy of Military Medical Science) 3 d after the injection (ip) of brewer thioglycollate medium (5 mL/100 g body weight). […] Cell viability was examined by trypan blue dye exclusion. All incubation procedures were performed with 5% CO2 in humidified air at 37° C.
COX-2 assay: Macrophages were incubated with test compound at different concentrations or solvent (Me2SO) for 1 h and were stimulated with LPS 1 mg/L for 9 h. The amount of PGE2 in supernatants was measured by RIA. The inhibitory ratio was calculated using the same Formula as in COX-1 assay section. Cs, Ct, Cc refer to PGE2 concentration in supernatants of LPS, test compound, and control groups, respectively.
Statistical analysis: Data were expressed as the mean±SD of more than three independent experiments. Dose-inhibitory effect curves were fit through “uphill dose response curves, variable slope” using Prism, GraphPad (version 3.00): [formula]

Turning to `CS(=O)(=O)c1ccc(-c2[nH]c3ccccc3c2-c2ccc(Cl)cc2)cc1` [Example 61, 2-(4-methylsulfonylphenyl)-3-(4-chlorophenyl)indole], the melting point lay in the range of 198.5 to 200.5 °C. In addition, the edema (paw volume increase) in data set [1] (2 h after carrageenan) turned out to be 14.6 ± 7.8%. In data set [1] (3 h after carrageenan), the edema (paw volume increase) came to 30.6 ± 10% and the “inhibitory percentage of edema” value is 51.1%. Besides, in data set [1] (4 h after carrageenan), the edema (paw volume increase) turned out to be 25.7 ± 10.1% and the “inhibitory percentage of edema” value is 50.4%. The IC50 in data set [2] turned out to be 146 nM.

As for `NS(=O)(=O)c1ccc(-c2[nH]c3ccccc3c2-c2ccc(Cl)cc2)cc1` [Example 62, 2-(4-aminosulfonylphenyl)-3-(4-chlorophenyl)indole], the melting point was 298 to 300 °C. This compound also registered an edema (paw volume increase) in data set [1] (2 h after carrageenan) of 16.6 ± 6.5%. Also, in data set [1] (3 h after carrageenan), the edema (paw volume increase) was determined as 41.3 ± 13.7% and the “inhibitory percentage of edema” value turned out to be 24.2%. In data set [1] (4 h after carrageenan), the edema (paw volume increase) worked out at 38.6 ± 14.9% and the “inhibitory percentage of edema” value is recorded as 25.6%. Also, in data set [2], inhibition was half-maximal at 33.5 nM (IC50).

For the compound `CS(=O)(=O)c1ccc(-c2[nH]c3ccccc3c2-c2ccc(Br)cc2)cc1` [Example 63, 2-(4-methylsulfonylphenyl)-3-(4-bromophenyl)indole], the melting point lay in the range of 225 to 226 °C. The same compound displayed an edema (paw volume increase) in data set [1] (2 h after carrageenan) of 27.1 ± 10.1%. Further, in data set [1] (3 h after carrageenan), the edema (paw volume increase) came out at 55.3 ± 17% and the “inhibitory percentage of edema” value worked out at 11.6%. Further, in data set [1] (4 h after carrageenan), the edema (paw volume increase) worked out at 43.6 ± 9.5% and the “inhibitory percentage of edema” value was 16.1%. Further, the IC50 in data set [2] came to 0.369 nM.

`Cc1ccc(-c2c(-c3ccc(S(C)(=O)=O)cc3)[nH]c3ccccc23)cc1` [Example 65, 2-(4-methylsulfonylphenyl)-3-(4-methylphenyl)indole] had a melting point of 197 to 198 °C. The same compound gave an edema (paw volume increase) in data set [1] (2 h after carrageenan) of 18.5 ± 8.1%. Further, in data set [1] (3 h after carrageenan), the edema (paw volume increase) was found to be 35.8 ± 6.8% and the “inhibitory percentage of edema” value stood at 42.8%. In addition, in data set [1] (4 h after carrageenan), the edema (paw volume increase) is 27.4 ± 7.1% and the “inhibitory percentage of edema” value is on record as 47.2%. Further, in data set [2], the midpoint of inhibition, the IC50, lay at 0.0896 nM.

`Cc1ccc(-c2c(-c3ccc(S(C)(=O)=O)cc3)[nH]c3ccccc23)cc1C` [Example 67, 2-(4-methylsulfonylphenyl)-3-(3,4-dimethylphenyl)indole]: the melting point lay within 206 to 207 °C. This compound also registered an edema (paw volume increase) in data set [1] (2 h after carrageenan) of 25.6 ± 13.4%. Also, in data set [1] (3 h after carrageenan), the edema (paw volume increase) is 43.9 ± 11% and the “inhibitory percentage of edema” value worked out at 29.8%. Also, in data set [1] (4 h after carrageenan), the edema (paw volume increase) was determined as 29.5 ± 12% and the “inhibitory percentage of edema” value was 43.1%. The compound further had an IC50 in data set [2] of 0.166 nM.

Take `COc1ccc(-c2c(-c3ccc(S(C)(=O)=O)cc3)[nH]c3ccccc23)cc1` [Example 69, 2-(4-methylsulfonylphenyl)-3-(4-methoxyphenyl)indole]: the melting point lay within 218.5 to 220.5 °C. Besides, the edema (paw volume increase) in data set [1] (2 h after carrageenan) amounted to 21.6 ± 12.4%. Further, in data set [1] (3 h after carrageenan), the edema (paw volume increase) is 43.4 ± 12.1% and the “inhibitory percentage of edema” value came to 30.6%. Also, in data set [1] (4 h after carrageenan), the edema (paw volume increase) worked out at 37.8 ± 10.7% and the “inhibitory percentage of edema” value is recorded as 27.1%. In data set [2], the IC50 amounted to 0.022 nM.

The compound `NS(=O)(=O)c1ccc(-c2[nH]c3ccccc3c2-c2ccc(F)cc2)cc1` [Example 72, 2-(4-aminosulfonylphenyl)-3-(4-Fluorophenyl)indole] gave a melting point of 228 to 230 °C. This compound also showed an edema (paw volume increase) in data set [1] (2 h after carrageenan) of 32.8 ± 13.2%. In data set [1] (3 h after carrageenan), the edema (paw volume increase) was found to be 36.4 ± 16.9% and the “inhibitory percentage of edema” value is reported as 40.5%. Further, in data set [1] (4 h after carrageenan), the edema (paw volume increase) came out at 35.4 ± 11.3% and the “inhibitory percentage of edema” value was 41.2%. This compound also displayed an IC50 in data set [2] of 5.15 nM.

A word on the melting point: it is the temperature of the solid-liquid transition. A word on the IC50: it is the concentration that inhibits the measured activity by half.
